Assay results as given in patent publication US12503461B2, “Pesticidally active heterocyclic derivatives with sulfur and sulfoximine containing substituents” (SYNGENTA CROP PROTECTION AG, priority 2019, dated 2025).

How the values were obtained:
Assay type in all cases: in vivo
[1] = system: Spodoptera littoralis (Egyptian Cotton Leaf Worm); test: Example B7: Spodoptera littoralis (Egyptian cotton leaf worm), sprayed cotton leaf discs, L1 larvae; details: foliar, 72 h, application rate of 200 ppm, 3 days after infestation, in comparison to untreated samples
Method: Example B7: Spodoptera littoralis (Egyptian Cotton Leaf Worm
Cotton leaf discs were placed onto agar in 24-well microtiter plates and sprayed with aqueous test solutions prepared from 10′000 ppm DMSO stock solutions. After drying the leaf discs were infested with five L1 larvae. The samples were assessed for mortality, anti-feeding effect, and growth inhibition in comparison to untreated samples 3 days after infestation. Control of Spodoptera littoralis by a test sample is given when at least one of the categories mortality, anti-feedant effect, and growth inhibition is higher than the untreated sample.

[2] = system: Diabrotica balteata (Corn Root Worm); test: Example B1: Diabrotica balteata (corn root worm), sprayed maize sprouts on agar, L2 larvae; details: 96 h, application rate of 200 ppm, 4 days after infestation, in comparison to untreated samples, read-out: effect in at least one of the two categories (mortality or growth inhibition)
Method: Example B1: Diabrotica balteata (Corn Root Worm
Maize sprouts placed onto an agar layer in 24-well microtiter plates were treated with aqueous test solutions prepared from 10′000 ppm DMSO stock solutions by spraying. After drying, the plates were infested with L2 larvae (6 to 10 per well). The samples were assessed for mortality and growth inhibition in comparison to untreated samples 4 days after infestation.

[3] = system: Plutella xylostella (Diamond Back Moth); test: Example B4: Plutella xylostella (diamond back moth), treated artificial diet, eggs; details: 192 h, application rate of 200 ppm, 8 days after infestation, in comparison to untreated samples, read-out: effect in at least one of the two categories (mortality or growth inhibition)
Method: Example B4: Plutella xylostella (Diamond Back Moth
24-well microtiter plates with artificial diet were treated with aqueous test solutions prepared from 10′000 ppm DMSO stock solutions by pipetting. After drying, Plutella eggs were pipetted through a plastic stencil onto a gel blotting paper and the plate was closed with it. The samples were assessed for mortality and growth inhibition in comparison to untreated samples 8 days after infestation.

[4] = system: Euschistus heros (Neotropical Brown Stink Bug); test: Example B2: Euschistus heros (neotropical brown stink bug), sprayed soybean leaves, N2 nymphs; details: 120 h, application rate of 200 ppm, 5 days after infestation, in comparison to untreated samples, read-out: effect in at least one of the two categories (mortality or growth inhibition)
Method: Example B2: Euschistus heros (Neotropical Brown Stink Bug
Soybean leaves on agar in 24-well microtiter plates were sprayed with aqueous test solutions prepared from 10′000 ppm DMSO stock solutions. After drying the leaves were infested with N2 nymphs. The samples were assessed for mortality and growth inhibition in comparison to untreated samples 5 days after infestation.

[5] = system: Myzus persicae (Green Peach Aphid); test: Example B5: Myzus persicae (green peach aphid), feeding/contact activity, sprayed sunflower leaf discs; details: foliar, 144 h, application rate of 200 ppm, aphid population of mixed ages, 6 days after infestation
Method: Example B5: Myzus persicae (Green Peach Aphid). Feeding/Contact Activity
Sunflower leaf discs were placed onto agar in a 24-well microtiter plate and sprayed with aqueous test solutions prepared from 10′000 ppm DMSO stock solutions. After drying, the leaf discs were infested with an aphid population of mixed ages. The samples were assessed for mortality 6 days after infestation.

CCS(=O)(=O)c1cc(OCC(F)(F)F)cnc1-c1nc2cc(S(=O)(=NC(C)=O)C(F)(F)F)ccc2o1 (stereo not shown) [P24, N-[[2-[3-ethylsulfonyl-5-(2,2,2-trifluoroethoxy)-2-pyridyl]-1,3-benzoxazol-5-yl]-oxo-(trifluoromethyl)-λ^6-sulfanylidene]acetamide]
≥ 80%: percent control (mortality, anti-feeding effect or growth inhibition) at 200 ppm [1] | percent effect (mortality or growth inhibition) at 200 ppm [2] | percent effect (mortality or growth inhibition) at 200 ppm [3] | effect (mortality or growth inhibition) at 200 ppm [4]

CCS(=O)(=O)c1cccnc1-c1nc2cc(S(=N)(=O)C(F)(F)F)ccc2o1 (stereo not shown) [P16, [2-(3-ethylsulfonyl-2-pyridyl)-1,3-benzoxazol-5-yl]-imino-oxo-(trifluoromethyl)-λ^6-sulfane]
≥ 80%: percent control (mortality, anti-feeding effect or growth inhibition) at 200 ppm [1] | percent effect (mortality or growth inhibition) at 200 ppm [2] | percent effect (mortality or growth inhibition) at 200 ppm [3] | effect (mortality or growth inhibition) at 200 ppm [4]

CCN=S(=O)(c1ccc2oc(-c3ncc(OCC(F)(F)F)cc3S(=O)(=O)CC)nc2c1)C(F)(F)F (stereo not shown) [P22, ethylimino-[2-[3-ethylsulfonyl-5-(2,2,2-trifluoroethoxy)-2-pyridyl]-1,3-benzoxazol-5-yl]-oxo-(trifluoromethyl)-λ^6-sulfane]
≥ 80%: percent control (mortality, anti-feeding effect or growth inhibition) at 200 ppm [1] | percent effect (mortality or growth inhibition) at 200 ppm [2] | percent effect (mortality or growth inhibition) at 200 ppm [3] | effect (mortality or growth inhibition) at 200 ppm [4]

CCS(=O)(=O)c1cc(-c2ncc(Cl)cn2)cnc1-c1nc2cc(S(=N)(=O)C(F)(F)F)ccc2o1 (stereo not shown) [P42, [2-[5-(5-chloropyrimidin-2-yl)-3-ethylsulfonyl-2-pyridyl]-1,3-benzoxazol-5-yl]-imino-oxo-(trifluoromethyl)-λ^6-sulfane]
≥ 80%: percent control (mortality, anti-feeding effect or growth inhibition) at 200 ppm [1] | percent effect (mortality or growth inhibition) at 200 ppm [2] | percent effect (mortality or growth inhibition) at 200 ppm [3] | effect (mortality or growth inhibition) at 200 ppm [4]

CCN=S(=O)(c1ccc2oc(-c3ncc(C4(C#N)CC4)cc3S(=O)(=O)CC)nc2c1)C(F)(F)F (stereo not drawn) [P8, 1-[5-ethylsulfonyl-6-[5-[N-ethyl-S-(trifluoromethyl)sulfonimidoyl]-1,3-benzoxazol-2-yl]-3-pyridyl]cyclopropanecarbonitrile]
≥ 80%: percent control (mortality, anti-feeding effect or growth inhibition) at 200 ppm [1] | percent effect (mortality or growth inhibition) at 200 ppm [2] | percent effect (mortality or growth inhibition) at 200 ppm [3] | effect (mortality or growth inhibition) at 200 ppm [4]

CCN=S(=O)(c1ccc2oc(-c3ncc(-c4ncccn4)cc3S(=O)(=O)CC)nc2c1)C(F)(F)F (stereo not shown) [P35, ethylimino-[2-(3-ethylsulfonyl-5-pyrimidin-2-yl-2-pyridyl)-1,3-benzoxazol-5-yl]-oxo-(trifluoromethyl)-λ^6-sulfane]
≥ 80%: percent control (mortality, anti-feeding effect or growth inhibition) at 200 ppm [1] | percent effect (mortality or growth inhibition) at 200 ppm [2] | percent effect (mortality or growth inhibition) at 200 ppm [3] | effect (mortality or growth inhibition) at 200 ppm [4]

CCN=S(=O)(c1ccc2c(c1)nc(-c1nc(-n3cncn3)ccc1S(=O)(=O)CC)n2C)C(F)(F)F (stereo not shown) [P45, ethylimino-[2-[3-ethylsulfonyl-6-(1,2,4-triazol-1-yl)-2-pyridyl]-1-methyl-benzimidazol-5-yl]-oxo-(trifluoromethyl)-λ^6-sulfane]
≥ 80%: percent control (mortality, anti-feeding effect or growth inhibition) at 200 ppm [1] | percent effect (mortality or growth inhibition) at 200 ppm [2] | percent effect (mortality or growth inhibition) at 200 ppm [3] | mortality at 200 ppm [5]

CCS(=O)(=O)c1cc(C2(C#N)CC2)cnc1-c1nc2cc(S(=O)(=NC)C(F)(F)F)ccc2o1 (stereo not drawn) [P29, 1-[5-ethylsulfonyl-6-[5-[N-methyl-S-(trifluoromethyl)sulfonimidoyl]-1,3-benzoxazol-2-yl]-3-pyridyl]cyclopropanecarbonitrile]
≥ 80%: percent control (mortality, anti-feeding effect or growth inhibition) at 200 ppm [1] | percent effect (mortality or growth inhibition) at 200 ppm [2] | percent effect (mortality or growth inhibition) at 200 ppm [3] | effect (mortality or growth inhibition) at 200 ppm [4]

CCS(=O)(=O)c1cccnc1-c1nc2cc(S(=O)(=NC3CC3)C(F)(F)F)ccc2o1 (stereo not shown) [P13, cyclopropylimino-[2-(3-ethylsulfonyl-2-pyridyl)-1,3-benzoxazol-5-yl]-oxo-(trifluoromethyl)-λ^6-sulfane]
≥ 80%: percent control (mortality, anti-feeding effect or growth inhibition) at 200 ppm [1] | percent effect (mortality or growth inhibition) at 200 ppm [2] | percent effect (mortality or growth inhibition) at 200 ppm [3] | mortality at 200 ppm [5]

CCS(=O)(=O)c1cc(-c2ncccn2)cnc1-c1nc2cc(S(=N)(=O)C(F)(F)F)ccc2o1 (stereo not shown) [P36, [2-(3-ethylsulfonyl-5-pyrimidin-2-yl-2-pyridyl)-1,3-benzoxazol-5-yl]-imino-oxo-(trifluoromethyl)-λ^6-sulfane]
≥ 80%: percent control (mortality, anti-feeding effect or growth inhibition) at 200 ppm [1] | percent effect (mortality or growth inhibition) at 200 ppm [2] | percent effect (mortality or growth inhibition) at 200 ppm [3] | effect (mortality or growth inhibition) at 200 ppm [4]

CCS(=O)(=O)c1cc(C2(C#N)CC2)cnc1-c1nc2cc(S(=O)(=NC3CC3)C(F)(F)F)ccc2n1C (stereo not drawn) [P31, 1-[6-[5-[N-cyclopropyl-S-(trifluoromethyl)sulfonimidoyl]-1-methyl-benzimidazol-2-yl]-5-ethylsulfonyl-3-pyridyl]cyclopropanecarbonitrile]
≥ 80%: percent effect (mortality or growth inhibition) at 200 ppm [2] | percent effect (mortality or growth inhibition) at 200 ppm [3] | effect (mortality or growth inhibition) at 200 ppm [4]

CCN=S(=O)(c1ccc2oc(-c3ncc(N(C)C(C)=O)cc3S(=O)(=O)CC)nc2c1)C(F)(F)F (stereo not drawn) [P3, N-[5-ethylsulfonyl-6-[5-[N-ethyl-S-(trifluoromethyl)sulfonimidoyl]-1,3-benzoxazol-2-yl]-3-pyridyl]-N-methyl-acetamide]
≥ 80%: percent control (mortality, anti-feeding effect or growth inhibition) at 200 ppm [1] | percent effect (mortality or growth inhibition) at 200 ppm [2] | percent effect (mortality or growth inhibition) at 200 ppm [3] | mortality at 200 ppm [5]

CCS(=O)(=O)c1cc(Oc2ccccn2)cnc1-c1nc2cc(S(=O)(=NC(C)=O)C(F)(F)F)ccc2o1 (stereo not shown) [P25, N-[[2-[3-ethylsulfonyl-5-(2-pyridyloxy)-2-pyridyl]-1,3-benzoxazol-5-yl]-oxo-(trifluoromethyl)-λ^6-sulfanylidene]acetamide]
≥ 80%: percent control (mortality, anti-feeding effect or growth inhibition) at 200 ppm [1] | percent effect (mortality or growth inhibition) at 200 ppm [2] | percent effect (mortality or growth inhibition) at 200 ppm [3] | effect (mortality or growth inhibition) at 200 ppm [4]

CCS(=O)(=O)c1cc(C2(C#N)CC2)cnc1-c1nc2cc(S(=O)(=NCC(F)(F)F)C(F)(F)F)ccc2o1 (stereo not drawn) [P28, 1-[5-ethylsulfonyl-6-[5-[N-(2,2,2-trifluoroethyl)-S-(trifluoromethyl)sulfonimidoyl]-1,3-benzoxazol-2-yl]-3-pyridyl]cyclopropanecarbonitrile]
≥ 80%: percent control (mortality, anti-feeding effect or growth inhibition) at 200 ppm [1] | percent effect (mortality or growth inhibition) at 200 ppm [2] | percent effect (mortality or growth inhibition) at 200 ppm [3]

CCN=S(=O)(c1ccc2oc(-c3ncc(Oc4ccccn4)cc3S(=O)(=O)CC)nc2c1)C(F)(F)F (stereo not shown) [P10, ethylimino-[2-[3-ethylsulfonyl-5-(2-pyridyloxy)-2-pyridyl]-1,3-benzoxazol-5-yl]-oxo-(trifluoromethyl)-λ^6-sulfane]
≥ 80%: percent control (mortality, anti-feeding effect or growth inhibition) at 200 ppm [1] | percent effect (mortality or growth inhibition) at 200 ppm [2] | percent effect (mortality or growth inhibition) at 200 ppm [3] | effect (mortality or growth inhibition) at 200 ppm [4]
